The record followed here is publication PMC3173955, “Antifungal Activities of Peptides Derived from Domain 5 of High-Molecular-Weight Kininogen” (International Journal of Peptides, 2011).

Peptide text beside a SMILES is read from it. Bounds are passed on as bounds.

Test [1] deals with C. parapsilosis ATCC 90018. It counts as cell-based, Candida parapsilosis. On the procedure:
C. albicans ATCC 90028 and C. parapsilosis ATCC 90018 were obtained from the Department of Bacteriology Lund at Skåne University Hospital. Cells were precultured overnight on Sabouraud-dextrose-agar (Difco, Detroit, Mich) at 28°C, inoculated in 10 mL yeast extract-peptone-dextrose (YPD) broth (Sigma-Aldrich, St. Louis, Mo USA) at 28°C, and grown to mid-logarithmic phase. The cells were washed three times and diluted in 10 mM Tris, pH 7.4. Fifty μL of a suspension containing 1 × 10^6 fungal colony-forming units (cfu)/mL was incubated at 28°C for two hours with rD5, HKH20 at concentrations ranging from 0.3 μM to 60 μM, or the peptides HKH20, GKH17, GKH17WWW, and GKH17WWWWW at a concentration of 30 μM. To quantify the fungicidal activity, serial dilutions of the incubation mixture were plated onto Sabouraud-dextrose-agar plates (Difco, Detroit, Mich) and incubated for 48 h at 28°C, and the number of cfu were thereafter determined by counting visible colonies. Activity of 30 μM HKH20, GKH17, GKH17WWW, and GKH17WWWWW peptides against Candida was also tested in physiological salt conditions (0.15 M NaCl in 10 mM Tris, pH 7.4) in presence of 20% as well as 50% human plasma, and 50% human serum (in 0.15 M NaCl, 10 mM Tris, pH 7.4) (Figure 3). […]

Test [2] has as its system C. parapsilosis ATCC 90018. As to the kind of experiment: Radial diffusion assay (RDA). The note with it: 6 μl of peptide per well (Figure 2(b)). It counts as cell-based, Candida parapsilosis. The procedure: Radial diffusion assay (RDA) was performed as described by Lehrer et al. with some minor modifications. Candida was grown for 16 h at 28°C in 10 mL YPD to obtain yeast form organisms. The culture was centrifuged at 2000 ×g for 10 min then washed three times with 10 mM Tris, pH 7.4. A volume containing 1 × 10^5 cfu was added to 5 mL of previously autoclaved, 42°C, underlay agarose gel that contained 1.5 mg of Tryptic Soy Broth (TSB) base, 50 mg of low-electroendosmosistype (Low-EEO) agarose type I (A-6013-25G) (Sigma-Aldrich Inc, St. Louis, Mo, USA), and 1 μL of Tween 20 (0.02% w/v) (Sigma Chemical Co.) dissolved in 10 mM Tris, pH 7.4. The fungi were directly dispensed into the agar and mixed with a vortex mixer for 10 seconds and then quickly poured out into a petri dish, 85 mm in diameter. Wells, 4 mm in diameter, were punched, and each well was then filled up with 6 μL of test sample. After incubation at 35–37°C for 3 h, 5 mL of overlay agarose gel, consisting of 300 mg TSB, 50 mg Low-EEO agarose dissolved in distilled sterilized water, was poured out on top of the underlay gel. The clear zone surrounding the wells, indicating antifungal activity, was measured after 18–24 h of incubation at 28°C. HMWK degradation products were tested for RDA inhibitory effects (Figure 1(b)). […]

Test [3] deals with C. albicans ATCC 90028. Nature of the test: Radial diffusion assay (RDA), low salt. It counts as cell-based, Candida albicans. The note with it: 6 μL at 100 μM; for Antifungal activity in RDA: low salt conditions (Figure 2(c)). The procedure:
Radial diffusion assay (RDA) was performed as described by Lehrer et al. with some minor modifications. Candida was grown for 16 h at 28°C in 10 mL YPD to obtain yeast form organisms. The culture was centrifuged at 2000 ×g for 10 min then washed three times with 10 mM Tris, pH 7.4. A volume containing 1 × 10^5 cfu was added to 5 mL of previously autoclaved, 42°C, underlay agarose gel that contained 1.5 mg of Tryptic Soy Broth (TSB) base, 50 mg of low-electroendosmosistype (Low-EEO) agarose type I (A-6013-25G) (Sigma-Aldrich Inc, St. Louis, Mo, USA), and 1 μL of Tween 20 (0.02% w/v) (Sigma Chemical Co.) dissolved in 10 mM Tris, pH 7.4. The fungi were directly dispensed into the agar and mixed with a vortex mixer for 10 seconds and then quickly poured out into a petri dish, 85 mm in diameter. Wells, 4 mm in diameter, were punched, and each well was then filled up with 6 μL of test sample. After incubation at 35–37°C for 3 h, 5 mL of overlay agarose gel, consisting of 300 mg TSB, 50 mg Low-EEO agarose dissolved in distilled sterilized water, was poured out on top of the underlay gel. The clear zone surrounding the wells, indicating antifungal activity, was measured after 18–24 h of incubation at 28°C. HMWK degradation products were tested for RDA inhibitory effects (Figure 1(b)). Human leukocyte (neutrophil) elastase (HLE) and freeze-thaw-disrupted polymorphonuclear neutrophils (PMNs) at equivalent concentrations as used in the HMWK degradation were incubated at 37°C for 60 minutes and added as controls (Figure 1(b)).

For test [4], the system named is M. furfur ATCC 44342. Format: cell-based, Malassezia furfur. The note with it: for MIC (concentration yielding at least 95% inhibition of fungal growth): ATCC 44342, 24 h. The procedure: Malassezia furfur ATCC 44342 (CCUG 24230) was obtained from the Department of Bacteriology at Skåne University Hospital. The antifungal activity was tested in an assay described by Lopez-[…] et al., but with some minor modifications. Cells were cultured for 2 days at 37 °C in 10 mL medium containing 4% Bacto Malt Extract (Becton, Dickinson and Company, Md, USA), 1% glucose (VWR international), 1% Tween 80 (Sigma-Aldrich, St. Louis, Mo, USA) and 0.6% Bacto Peptone (Becton, Dickinson and Company, Md, USA). Cells were then washed in 1 mM sodium phosphate buffer, pH 7.4. M. furfur cells were grown in sterile 96-well microtiter plates (Costar, Corning Incorporated, Corning, USA) in a total volume of 100 μL, containing 60 μL of 1 mM sodium phosphate buffer, pH 7.4, 20 μL of culture medium, 10 μL of a 10x stock solution of the synthetic peptides, and a 10x stock solution of the fungal cell suspension, resulting in a final concentration of 1-2 × 10^5 cells/mL. Chloramphenicol was added to each well (16 μg/ml) to avoid contamination. The cells were incubated at 30°C for 24 h. To quantify the fungicidal activity, serial dilutions of the incubation mixture were plated onto agar plates and incubated 72 h at 37°C, and the number of cfu thereafter was determined by counting visible colonies. The minimal inhibitory concentration (MIC) was defined as the concentration which yielded at least 95% inhibition of fungal growth.

The nature of test [5]: Liposome leakage assay (carboxyfluorescein release). The note with it: DOPC/sterol 60/40 mol/mol, 10 μM lipid in 10 mM Tris, 5 mM glucose, pH 7.4, 37°C, CF fluorescence at 520 nm, at least duplicate (Figure 4). From the text:
The liposomes investigated were zwitterionic DOPC/cholesterol (60/40 mol/mol) or DOPC/ergosterol (60/40 mol/mol). DOPC (1,2-Dioleoyl-sn-Glycero-3-Phosphatidylcholine) was from Avanti Polar Lipids (Alabaster, USA) and of >99% purity, while ergosterol and cholesterol (>99% purity) were from Sigma-Aldrich (St. Louis, USA). Due to the long, symmetric, and unsaturated acyl chains of DOPC, several methodological advantages are reached. In particular, membrane cohesion is good, which facilitates very stable unilamellar liposomes, allowing detailed values on leakage to be obtained. The lipid mixtures were dissolved in chloroform, after which solvent was removed by evaporation under vacuum overnight. Subsequently, 10 mM Tris buffer, pH 7.4, was added together with 0.1 M carboxyfluorescein (CF) (Sigma, St. Louis, USA). After hydration, the lipid mixture was subjected to eight freeze-thaw cycles consisting of freezing in liquid nitrogen and heated to 60°C. Unilamellar liposomes of about Ø140 nm were generated by multiple extrusions through polycarbonate filters (pore size 100 nm) mounted in a LipoFast miniextruder (Avestin, Ottawa, Canada) at 22°C. […] CF release from the liposomes was determined by monitoring the emitted fluorescence at 520 nm from a liposome dispersion (10 μM lipid in 10 mM Tris, 5 mM glucose, pH 7.4). […]

For the compound `NCCCC[C@H](NC(=O)CNC(=O)[C@H](CC(N)=O)NC(=O)[C@H](CCCCN)NC(=O)[C@H](CCCCN)NC(=O)CNC(=O)[C@H](CCCCN)NC(=O)[C@H](CC(N)=O)NC(=O)[C@H](CCCCN)NC(=O)[C@H](Cc1c[nH]cn1)NC(=O)[C@H](CCCCN)NC(=O)CNC(=O)[C@H](Cc1c[nH]cn1)NC(=O)CNC(=O)[C@H](Cc1c[nH]cn1)NC(=O)CNC(=O)[C@H](Cc1c[nH]cn1)NC(=O)[C@H](CCCCN)NC(=O)[C@@H](N)Cc1c[nH]cn1)C(=O)N[C@@H](Cc1c[nH]cn1)C(=O)O` [HKH20] (H-HKHGHGHGKHKNKGKKNGKH-OH; N-terminus and C-terminus assumed), the “Antifungal activity in viable count assay” value in test [1] (0.3 μM to 60 μM, 1 × 10^6 cfu/mL, 2 h at 28°C, 10 mM Tris pH 7.4 (Figure 2(a))) is reported as “potent antifungal activity”. Further, the “Candida cells killed (time-dependent killing)” value in test [1] (ATCC 90018, 48 h, 30 μM, pH 7.4) was > 80%. Also, the “Inhibitory activity in RDA compared with reference peptides” value in test [2] is reported as “significantly higher inhibitory activity on Candida, when compared with LL-37”. Besides, the “Antifungal activity in RDA” value in test [3] is on record as “showed antifungal activity”. Besides, in test [3] (low salt, P < 0.05 (Figure 2(c))), the “Inhibitory activity in RDA in comparison to LL-37” value is “significantly more potent inhibitory activity on Candida, in comparison to LL-37”. Also, in test [4] (10 μM or 30 μM, 24 h (Figure 2(e))), the “Antifungal activity against M. furfur at fixed concentrations” value is “antifungal at 10 and 30 μM”. Moreover, in test [4], the “MIC (concentration yielding at least 95% inhibition of fungal growth)” value was 2.5 to 5 µM.

Consider `NCCCC[C@H](NC(=O)[C@H](Cc1c[nH]c2ccccc12)NC(=O)CNC(=O)[C@H](CC(N)=O)NC(=O)[C@H](Cc1c[nH]cn1)NC(=O)[C@H](CCCCN)NC(=O)CNC(=O)[C@H](CC(N)=O)NC(=O)[C@H](CCCCN)NC(=O)[C@H](CCCCN)NC(=O)CNC(=O)[C@H](CCCCN)NC(=O)[C@H](CC(N)=O)NC(=O)[C@H](CCCCN)NC(=O)[C@H](Cc1c[nH]cn1)NC(=O)[C@H](CCCCN)NC(=O)CN)C(=O)O` [GKH17] (H-GKHKNKGKKNGKHNGWK-OH), for which, in test [4], the “MIC (concentration yielding at least 95% inhibition of fungal growth)” value fell in the range of 5 to 10 µM.

For the compound GGHVLDHGHKHKHGHGHGKH [GGH20], the “Antifungal activity in RDA” value in test [3] is given as “showed antifungal activity”.

As for “GKHKNKGKKNGKHNGWKWWW [GKH17WWW, GKH17 hydrophobically end-tagged with three W residues at the C-terminal]”, the “Membrane-disruptive potency, ergosterol- versus cholesterol-containing liposomes” value in test [5] is reported as “higher for ergosterol-containing liposomes than for cholesterol-containing ones”.
